# From US11554182B2, “Macrocyclic complexes of alpha-emitting radionuclides and their use in targeted radiotherapy of cancer” (CORNELL UNIVERSITY, priority 2017, dated 2023)
# Experiment: In vivo biodistribution of ^225Ac complexes after intravenous injection
# Set-up: species or system C57BL/6 mice
# Procedure: In Vivo Biodistribution of ^225Ac Complexes of Macropa and DOTA. All experiments were approved by the Institutional Animal Care Committee (IACC) of the University of British Columbia and were performed in accordance with the Canadian Council on Animal Care Guidelines. A total of 9 female C57BL/6 mice (6-8 weeks old, 20-25 g) were used for the biodistribution study of each radiometal complex, n=3 for each time point.
# Macropa (100 μL of a 1 mg/mL solution in NH4OAc) was diluted with 387 μL of NH4OAc (1 M, pH 7), and an aliquot (203 μL) of ^225Ac(NO3)3 (˜157 kBq) was then added; the pH of this solution was adjusted to 6.5-7 by the addition of 1 M NaOH (210 μL, trace metal grade). After 5 min at ambient temperature, the reaction solution was analyzed by TLC (0.4 M pH 4 sodium citrate as the eluent), which confirmed >95% radiochemical yield. The reaction was allowed to proceed overnight, and the radiochemical yield was again confirmed to be >95% the following morning. At this time, mice were anesthetized by 2% isoflurane, and approximately 100 μL (10-15 kBq) of the [^225Ac(macropa)]^+ complex were injected into the tail vein of each mouse. After injection, mice were allowed to recover and roam freely in their cages, and were euthanized by CO2 inhalation at 15 min, 1 h, or 5 h (n=3 at each time point) post-injection. Blood was collected by cardiac puncture and placed into an appropriate test tube for scintillation counting. Tissues collected included heart, liver, kidneys, lungs, small intestine, large intestine, brain, bladder, spleen, stomach, pancreas, bone, thyroid, tail, urine, and feces. Tissues were weighed and then counted with a calibrated gamma counter (Packard, Cobra II model 5002) using three energy windows: 60-120 keV (window A), 180-260 keV (window B), and 400-480 keV (window C). Counting was performed both immediately after sacrifice and after 7 days; counts were decay corrected from the time of injection and then converted to the percentage of injected dose (% ID) per gram of tissue (% ID/g). No differences were noted between the data; therefore, the biodistributions are reported using the data acquired immediately using window A.
# The biodistribution studies of [^225Ac(DOTA)]^− and ^225Ac(NO3)3 were carried out as described above for [^225Ac(macropa)]^+, with the following modifications. [^225Ac(DOTA)]^− was prepared by adding ^225Ac(NO3)3 (338 μL, 1.1 MBq) to a solution of DOTA (100 μg, 20 mg/mL in H2O) in NH4OAc (467 μL, 0.15 M, pH 7). The pH of the solution was adjusted to 7 using NH4OAc (150 μL, 1 M, pH 7) and the solution was heated at 85° C. for 45 min. RCY>99% was confirmed by TLC as described above. [^225Ac(DOTA)]^− was diluted with saline to a final concentration of 0.05 MBq/100 μL, and 100 μL were injected into each mouse. ^225Ac(NO3)3 (˜58 μL, 0.4 MBq) was diluted and injected in the same manner as [^225Ac(DOTA)]^−. One mouse that was to be euthanized at the 5 h time point in the [^225Ac(DOTA)]^− study died shortly after injection. In the same manner, one mouse that was to be euthanized at the 1 h time point in the ^225Ac(NO3)3 study died.
# The in vivo stability [^225Ac(macropa)]^+ was examined by comparing its biodistribution to those of ^225Ac(NO3)3 and [^225Ac(DOTA)]^−. C57BL/6 mice were injected via tail vein with 10-50 kBq of each radiometal complex and were sacrificed after 15 min, 1 h, or 5 h. The amount of ^225Ac retained in each organ was quantified by gamma counting and reported as the percent of injected dose per gram of tissue (% ID/g). The results of these studies are compiled in Tables 1-3. Inadequate stability of an ^225Ac complex leading to the loss of radioisotope in vivo is manifested by the accumulation of ^225Ac in the liver, spleen, and bone of mice.^[11,12,32] […] The biodistribution profile of [^225Ac(macropa)]^+ (FIG. 3B) differs markedly from that of ^225Ac(NO3)3. […]
# [1] = 1 h after i.v. injection, energy window B (180-260 keV)
# [2] = 1 h after i.v. injection, energy window C (400-480 keV)
# [3] = 5 h after i.v. injection, energy window A (60-120 keV)
# [4] = 5 h after i.v. injection, energy window B (180-260 keV)
# [5] = 5 h after i.v. injection, energy window C (400-480 keV)
# [6] = i.v. injection, C57BL/6 mice, up to 5 h
smiles,measurement,setting,value
O=[N+]([O-])[O-].O=[N+]([O-])[O-].O=[N+]([O-])[O-].[225Ac] [^225Ac(NO3)3],% ID/g in lungs,[1],8.4426 % ID/g
same,% ID/g in pancreas,[1],2.1579 % ID/g
same,% ID/g in small intestines,[1],1.5192 % ID/g
same,% ID/g in spleen,[1],37.1540 % ID/g
same,% ID/g in stomach,[1],1.5867 % ID/g
same,% ID/g in tail,[1],6.4201 % ID/g
same,% ID/g in thyroids,[1],5.7426 % ID/g
same,% ID/g in urine,[1],7.0564 % ID/g
same,% ID/g in bladder,[2],2.2929 % ID/g
same,% ID/g in blood,[2],11.3736 % ID/g
same,% ID/g in bone (femur + joint),[2],2.7213 % ID/g
same,% ID/g in brain,[2],0.4402 % ID/g
same,% ID/g in feces,[2],0.1122 % ID/g
same,% ID/g in heart,[2],3.3464 % ID/g
same,% ID/g in kidneys,[2],6.2070 % ID/g
same,% ID/g in large intestines,[2],0.4366 % ID/g
same,% ID/g in liver,[2],23.6180 % ID/g
same,% ID/g in lungs,[2],5.2078 % ID/g
same,% ID/g in pancreas,[2],1.8508 % ID/g
same,% ID/g in small intestines,[2],3.5548 % ID/g
same,% ID/g in spleen,[2],38.1082 % ID/g
same,% ID/g in stomach,[2],2.3350 % ID/g
same,% ID/g in tail,[2],9.0877 % ID/g
same,% ID/g in thyroids,[2],0.0000 % ID/g
same,% ID/g in urine,[2],104.9103 % ID/g
same,% ID/g in bladder,[3],1.4947 % ID/g
same,% ID/g in blood,[3],1.9886 % ID/g
same,% ID/g in bone (femur + joint),[3],3.5460 % ID/g
same,% ID/g in brain,[3],0.0452 % ID/g
same,% ID/g in feces,[3],0.9445 % ID/g
same,% ID/g in heart,[3],1.3450 % ID/g
same,% ID/g in kidneys,[3],4.6910 % ID/g
same,% ID/g in large intestines,[3],0.6479 % ID/g
same,% ID/g in liver,[3],59.8156 % ID/g
same,% ID/g in lungs,[3],4.1871 % ID/g
same,% ID/g in pancreas,[3],0.4874 % ID/g
same,% ID/g in small intestines,[3],1.3704 % ID/g
same,% ID/g in spleen,[3],62.9614 % ID/g
same,% ID/g in stomach,[3],2.6131 % ID/g
same,% ID/g in tail,[3],23.4055 % ID/g
same,% ID/g in thyroids,[3],-2.7052 % ID/g
same,% ID/g in urine,[3],4.8267 % ID/g
same,% ID/g in bladder,[4],1.5234 % ID/g
same,% ID/g in blood,[4],2.0018 % ID/g
same,% ID/g in bone (femur + joint),[4],3.8533 % ID/g
same,% ID/g in brain,[4],0.0290 % ID/g
same,% ID/g in feces,[4],1.0201 % ID/g
same,% ID/g in heart,[4],1.3948 % ID/g
same,% ID/g in kidneys,[4],3.8752 % ID/g
same,% ID/g in large intestines,[4],0.6744 % ID/g
same,% ID/g in liver,[4],62.0765 % ID/g
same,% ID/g in lungs,[4],4.3379 % ID/g
same,% ID/g in pancreas,[4],0.4455 % ID/g
same,% ID/g in small intestines,[4],1.2201 % ID/g
same,% ID/g in spleen,[4],65.9117 % ID/g
same,% ID/g in stomach,[4],2.5322 % ID/g
same,% ID/g in tail,[4],25.4744 % ID/g
same,% ID/g in thyroids,[4],−4.6044 % ID/g
same,% ID/g in urine,[4],3.3142 % ID/g
same,% ID/g in bladder,[5],3.4975 % ID/g
same,% ID/g in blood,[5],2.1769 % ID/g
same,% ID/g in bone (femur + joint),[5],3.5851 % ID/g
same,% ID/g in brain,[5],0.0430 % ID/g
same,% ID/g in feces,[5],0.8535 % ID/g
same,% ID/g in heart,[5],1.2018 % ID/g
same,% ID/g in kidneys,[5],4.2061 % ID/g
same,% ID/g in large intestines,[5],1.0259 % ID/g
same,% ID/g in liver,[5],54.1727 % ID/g
same,% ID/g in lungs,[5],5.4923 % ID/g
same,% ID/g in pancreas,[5],0.4643 % ID/g
same,% ID/g in small intestines,[5],1.2922 % ID/g
same,% ID/g in spleen,[5],62.2357 % ID/g
same,% ID/g in stomach,[5],2.0358 % ID/g
same,% ID/g in tail,[5],28.4443 % ID/g
same,% ID/g in thyroids,[5],-0.4455 % ID/g
same,% ID/g in urine,[5],5.8548 % ID/g
same,clearance from blood / mice (in words),[6],slow blood clearance and excretion
same,organ accumulation (in words),[6],large accumulation in the liver and spleen
